# From patent publication US20090136470A1, “REGULATORY T CELLS AND METHODS OF MAKING AND USING SAME” (priority 2007, published 2009)
# Legend:
# [1] = system: CD4^+CD25^− spleen T cells; experiment: Th-17 differentiation of CD4 T cells stimulated with dendritic cells or spleen APCs plus TGF-β and IL-6 (intracellular IL-17 staining, IL-17 ELISA); format: cell-based, mouse
# Procedure: (§1) For CD4^+CD25^− T cell isolation, spleens were removed, teased into cell-single suspensions and filtered through a 70 μm cell strainer (Fisher Scientific, USA). CD4^+CD25^−T cells were isolated by negative selection after incubation with a mix of specific biotin-conjugated mAbs (anti-CD8, CD11b, CD11ε, CD25, CD45R (B220), NK1.1, and TER119) at 1/200 dilution, and anti-biotin magnetic microbeads (25-40 μl per spleen) (Miltenyi Biotec, USA).
# (§2) For dendritic cells isolation, spleen and MLN were chopped and digested by collagenase type D (Roche, USA) for 30 min at room temperature. Digested tissues were treated with 5 mM of EDTA for additional 5 min and mashed through a 70 μm cell strainer. Subsequently, CD11c^+ cells were enriched by positive selection using anti-CD11c microbeads according to the manufacturer's protocol (Miltenyi Biotec, USA). Enriched populations were stained with CD45-APC, CD 11c-PE, I-A^b-FITC and TCR β and sorted for TCRβ^−CD45^+CD11c^+I-Ab^+ by flow cytometry using a FACS-DIVA cell sorter (USA).
# (§3) The culture medium used for dendritic cell-T cell cultures was Iscove's modified Dulbecco medium (IMDM) (Gibco, USA) supplemented with 10% heat-inactivated FCS, 2 mM L-glutamine, 100 U/ml penicillin, 100 μg/ml streptomycin, and 5 mM β-mercaptoethanol (all Sigma, USA). […] For dendritic cell-T cell cultures, 2×10^4 dendritic cells and 1×10^5 T cells were cultured in a volume of 200 μl (96-well plates). For irradiated APC-T cell cultures, 5×10^5 APCs and 1×10^5 T cells were cultured in a volume of 200 μl in 96-well plates (2×10^6 APCs and 0.5×10^6 T cells per well in 48-well plates). […] For the study shown in FIG. 4A, after sorting of naive CD4^+ cells (CD25^−CD44^lowCD62L^+), cells were washed twice in PBS+0.1% BSA, counted and labeled with 2 μM of CFSE (Carboxyfluorescein diacetate, succinimidyl ester) (Molecular Probes, USA) at a concentration of 5−10×10^6 cells per ml in PBS-0.1% BSA.
# To block non-specific staining, the 2.4G2 anti-CD16/32 antibody was added.
# [2] = system: Polyclonal CD4^+CD25^− spleen T cells; experiment: APC-free Th-17 generation (anti-CD3/CD28 beads, IL-17 cond.: TGF-β, IL-6, IL-1β, TNF-α); format: cell-based, mouse
# Procedure: as §3
# (§4) To block non-specific staining, the 2.4G2 anti-CD16/32 antibody was added. […] For intracellular cytokine staining, cells obtained from in vitro cultures or isolated IELs were incubated for 4-5 hours with 50 ng/ml PMA, 750 ng/ml Ionomycin (both Sigma, USA) and 10 μg/ml Brefeldin A (Invitrogen, USA) in a tissue culture incubator at 37° C.
# [3] = system: RORγt; experiment: RORγt mRNA by real-time PCR in CD4 T cells under Th-17 culture conditions; format: cell-based, mouse; settings: α-CD3ε and α-CD28, IL-17 inducing cytokines
# Source text: For analysis of RORγ-T mRNA expression, naïve CD4^+T cells were purified essentially as described by Ivanov et al. [Ivanov, II et al., Cell 126, 1121 (2006)]. In brief, CD4+ T cells were purified from spleens of C57BL/6 mice using anti-CD4 magnetic microbeads (Miltenyi Biotec) and MACS columns. CD4^+T cells were stained with anti-CD25-PE, anti-CD4-PECy5, anti-CD62L-FITC, and anti-CD44-APC. The CD4^+CD25^− CD44^lowCD62L^+ T cells population was sorted by flow cytometry using a FACS-DIVA cell sorter (>99% purity). Some studies were also performed using CD4^+CD45RB^high T cell population, sorted as described above.
# At different time-points, cells were harvested, washed with sterile PBS and resuspended in TRIZol (Invitrogen, USA). Samples were then frozen and kept at −80° C. for later utilization. For RNA isolation, the whole tissue was homogenized and RNA was separated from DNA and proteins by precipitation with chloroform and extraction with isopropanol. The cDNA was synthesized from the total RNA using the Superscript II system (Invitrogen, USA) following the instructions provided by the manufacturer. […] Data were collected and analyzed on an iCycler Bio-Rad (Hercules, USA).
# [4] = system: CD4^+CD25^−T cells; experiment: TGF-β-dependent Foxp3 induction (Treg differentiation) in CD4 T cells with dendritic cells or APCs; format: cell-based, mouse
# Procedure: as §1, §2, §3
# (§5) For Foxp3 staining, no stimulation with PMA/Ionomycin was performed, with the exceptions of FIGS. 8B and 9A. […]
# [5] = system: CD8^+T cells from OT-I TCR transgenic mice
# Procedure: as §3
# (§6) For Foxp3 staining, no stimulation with PMA/Ionomycin was performed, with the exceptions of FIGS. 8B and 9A.
# [6] = system: CD4^+CD25^−T cells; experiment: CTLA-4, CD103, CCR9 and CD25 staining of CD4 T cells stimulated with spleen APCs plus TGF-β1 and/or RA; format: cell-based, mouse
# Procedure: as §1
# APCs were isolated from spleen of C57BL/6 mice by negative selection using CD90.2 (Thy1.2) magnetic microbeads to deplete T cells (Miltenyi Biotec).
# as §3, §4
# [7] = system: naïve CD4^+T cells; experiment: Re-stimulation (secondary cultures) of in vitro differentiated CD4 T cells: Foxp3 and IL-17 staining; format: cell-based, mouse; settings: cells first stimulated with TGF-β and IL-6, rested
# Procedure: as §3, §4, §5
# [8] = system: naïve CD4^+T cells from B7.1/2^−/− IL-2^+/+ or B7.1/2^−/− IL-2^−/− mice; experiment: RA-mediated effects on T cell differentiation without IL-2 (anti-IL-2 or IL-2−/− T cells) or with exogenous IL-2; format: cell-based, mouse
# Procedure: as §3, §6
# [9] = system: RAR; settings: cited from earlier work
# [10] = system: CD8^+ spleen T cells; experiment: IL-17^+ cell generation from CD8^+ T cells activated with TGF-β and IL-6
structure (smiles),measurement,setting,value
"CC1=C(/C=C/C(C)=C/C=C/C(C)=C/C(=O)O)C(C)(C)CCC1 [RA, All-trans retinoic acid]",antagonistic effect on IL-6 (Foxp3 versus IL-17),"[1]; TGF-β 5 ng/ml, varied concentrations of IL-6 and RA",dose dependent
same,Foxp3 / Th-17 differentiation of CD4 T cells under conditions that promote Th-17 differentiation,"[1]; TNF-α, IL-1-β, TGF-β and IL-6 plus RA",converted to Foxp3^+ cells with a decrease in Th-17 differentiation
same,Th-17 differentiation by spleen dendritic cells,"[1]; added to cultures with TGF-β and IL-6, 100 nM",inhibited the Th-17 differentiation by spleen dendritic cells
same,generation of IL-17^+ T cells under APC-free conditions,[2],also inhibited the generation of IL-17^+T cells
same,RORγt mRNA expression,[3],greatly reduced its expression
same,TGF-β-dependent Foxp3 induction by MLN dendritic cells,"[4]; OT-II CD4 cells, OVAp, TGF-β1, LE135 1 μM, RA 100 nM",enhanced
same,TGF-β-dependent Foxp3 induction under low amounts of TGF-β,"[4]; TGF-β 0.5 ng/ml, TCR-transgenic CD4 cells",still enhances
same,CD103 expression on CD8 cells,[5]; TGF-β and RA,synergized to upregulate CD103 expression
same,CD25 expression of CD8 T cells upon in vitro activation,[5]; in the presence of TGF-β and RA,down-regulate CD25 expression
same,expression of CTLA-4 on TGF-β-generated Foxp3^+ cells,[6],promoted the expression of CTLA-4
same,induction of CTLA-4 on Foxp3^− and Foxp3^+ activated cells (early),"[6]; OT-II CD4 T cells, spleen APCs, TGF-β and RA",delayed
same,CTLA-4 and Foxp3 phenotype of the majority of cells at later time-points,"[6]; OT-II CD4 T cells, spleen APCs, cultured with TGF-β and RA",both CTLA-4 and Foxp3^+
same,TGF-β-mediated CD103 expression on CD4 cells,"[6]; soluble α-CD3ε, spleen APCs, TGF-β1",greatly enhanced
same,committed Th-17 cells in secondary cultures,[7],also suppressed committed Th-17 cells
same,requirement for exogenously added IL-2,[8],did not require exogenously added IL-2
same,CD103 phenotype of the Foxp3^+Tregs generated,[8]; TGF-β-dependent Foxp3 differentiation,mostly CD103^+Tregs
same,dependence of Foxp3^+ enhancing and Th-17 inhibitory effects on IL-2,[8]; anti-IL-2 (20 μg/ml) or IL-2−/− T cells,for the most part dependent on IL-2
same,IL-17 cytokine secretion (ELISA),[8]; culture supernatants,measurably decreased
same,binding to RAR-RAR homodimers and RAR-RXR heterodimers,[9],can bind
same,generation of IL-17^+ T cells from cytotoxic CD8^+ T lymphocytes,"[10]; WT or OT-I TCR^+ CD8^+ T cells, TGF-β and IL-6",again able to inhibit this
same,Foxp3 / Th-17 differentiation of CD8 T cells under conditions that promote Th-17 differentiation,[10]; cultured with RA,converted to Foxp3^+ cells with a decrease in Th-17 differentiation
